Experimental data published in US7960435B2, “Anti-cancer agents and androgen inhibition activity compound” (University of Maryland, Baltimore, priority 2006, dated 2011).
Numbering of substitutions follows the chain as printed. Like-named read-outs stand apart in the source and are kept apart here.

How the values were obtained:
LNCaP cells = experiment: Cell growth inhibition (MTT colorimetric assay), LNCaP; type: cell-based, human; settings: for GI50: LNCaP (mutant AR), MTT, means of three experiments, called IC50, read-out: Cytotoxicity GI50 (nM) LNCaP
Excerpt: (§1) Lead optimization of BTB01434 and further biological studies: BTB01434 (Maybridge) was used as a lead molecule to synthesize new molecules. Although this compound was not as potent as some of the others (cf. Table 4), it was chosen for its ease of modification. New compounds (6-23) were developed using the diaryl sulfonamide compound BTB01434 (FIG. 6) as a scaffold. […] Including new BTB01434 analogs, including diaryl sulfonamide analogs bearing various substituents on the phenyl rings (series A), aryl amide analogs (series B), and amine analogs (series C). These new compounds were evaluated for cell growth inhibition in two human prostate cancer cell lines, (LNCaP and PC-3) by MTT assay. Based on the structures and anti-prostate cancer activities of the new compounds, a structure-activity relationship (SAR) was formulated.
Androgen-dependent LNCaP cells were obtained from American Type Culture Collection (Rockville, Md., USA). Cells were maintained in RPMI 1640 medium supplemented with 10% fetal bovine serum (Atlanta Biologicals, Lawrenceville, Ga., USA) and 1% penicillin/streptomycin. Cells were grown as a monolayer in T75 or T150 tissue culture flasks in a humidified incubator (5% CO2, 95% air) at 37° C.
(§2) LNCaP cells were seeded in 24 well plates (Corning Costar) at a density of 2×10^4 cells per well per 1 mL of medium. Cell were allowed to adhere to the plate for 24 hours and then treated with different concentrations of ARDAs dissolved in DMSO. Cells were treated for five days with renewal of ARDA and media on day 3. On the fifth day, medium was renewed and 100 μL of MTT (3-(4,5-dimethylthiazol-2-yl)-2,5-diphenyl-2H-tetrazolium bromide from Sigma) solution (0.5 mg MTT/mL of medium) was added to the medium such that the ratio of MTT:medium was 1:10. The cells were incubated with MTT for 2 hours. The medium was then aspirated and 500 μL of DMSO was added to solubilize the violet MTT-formazan product. The absorbance at 560 nm was measured by spectrophotometry (Victor 1420 multilabel counted, Wallac). For each concentration of ARDA there were triplicate wells in each independent experiment. IC50 values were calculated by nonlinear regression analysis using GraphPad Prism software.

PC-3 cells = experiment: Cell growth inhibition (MTT assay), PC-3; type: cell-based, human; settings: Homo sapiens, PC-3 (AR null), means of three experiments, called IC50, read-out: Cytotoxicity GI50 (nM) PC-3
Excerpt: as §1
Inhibition of prostate cancer cell proliferation and SAR: The exemplary compounds were then tested for their ability to inhibit cell viability in both the LNCaP (mutant AR) and PC-3 (AR null) cell lines (Table 5).
as §2

wild-type AR = molecular target: T1, wild-type AR (Homo sapiens, UniProt P10275); experiment: Competitive androgen receptor binding with [3H]-R1881 in PC-3-AR cells; settings: PC-3-AR cells
T1 construct: expressed in transfected cells; host or cells: PC-3 (stably transfected, PC-3-AR)
T1 sequence (P10275 1-920): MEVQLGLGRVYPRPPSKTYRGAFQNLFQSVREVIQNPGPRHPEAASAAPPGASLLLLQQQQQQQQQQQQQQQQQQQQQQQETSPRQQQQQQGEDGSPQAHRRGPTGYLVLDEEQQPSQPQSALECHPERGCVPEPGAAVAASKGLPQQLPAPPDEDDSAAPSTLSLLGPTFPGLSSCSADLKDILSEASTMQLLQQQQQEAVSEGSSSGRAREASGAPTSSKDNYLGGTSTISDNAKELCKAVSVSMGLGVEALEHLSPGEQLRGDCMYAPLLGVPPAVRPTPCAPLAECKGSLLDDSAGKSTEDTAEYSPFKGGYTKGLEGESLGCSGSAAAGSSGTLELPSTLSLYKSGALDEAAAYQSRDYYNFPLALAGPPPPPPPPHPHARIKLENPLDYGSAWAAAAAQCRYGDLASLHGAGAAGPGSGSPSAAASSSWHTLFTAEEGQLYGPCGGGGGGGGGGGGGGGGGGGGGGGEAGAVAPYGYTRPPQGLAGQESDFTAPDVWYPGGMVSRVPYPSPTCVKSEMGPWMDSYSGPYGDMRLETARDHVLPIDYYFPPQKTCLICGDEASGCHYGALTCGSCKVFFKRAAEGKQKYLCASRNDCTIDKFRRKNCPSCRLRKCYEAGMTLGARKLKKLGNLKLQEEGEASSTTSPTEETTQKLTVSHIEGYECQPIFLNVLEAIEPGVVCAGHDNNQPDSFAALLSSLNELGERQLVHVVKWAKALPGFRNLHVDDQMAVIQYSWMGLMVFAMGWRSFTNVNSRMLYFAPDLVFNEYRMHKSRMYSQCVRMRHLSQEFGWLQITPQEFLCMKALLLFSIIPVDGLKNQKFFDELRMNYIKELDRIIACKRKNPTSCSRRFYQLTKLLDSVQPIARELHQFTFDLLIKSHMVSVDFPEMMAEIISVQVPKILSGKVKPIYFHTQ
Description: (§3) In both cell lines, compounds 9 and 11 were able to effectively compete with labeled R1881 in a dose-dependent fashion (FIG. 11). In PC-3-AR cells compound II reduced [^3H]-R1881 binding by 65% and 80% at 10 μM and 20 μM, respectively. […] Compound 9 reduced [^3H]-R1881 binding by 50% and 65% at 10 μM and 20 μM, respectively, and was equipotent in both cell lines.
(§4) These assays were performed as previously described.^10

mutated AR = molecular target: T2, mutated AR (Homo sapiens, UniProt P10275, T878A); experiment: Competitive androgen receptor binding with [3H]-R1881 in LNCaP cells
T2 construct: we utilized the LNCaP cell line which contains a mutant AR; host or cells: LNCaP
T2 sequence (P10275 1-920 T878A): T1 sequence (P10275 1-920) with T878A
Description: as §3, §4

[1] = tested on: AR-mediated transcription (LNCaP-AR); experiment: Luciferase transactivation assay in LNCaP cells transfected with ARR2-Luc; type: cell-based, human; settings: for effect on luciferase activity, compound alone: without DHT
Description: FIG. 12. […] Cells in steroid-free medium were treated with vehicle, or increasing concentrations of either 9 or 11 with and without 5 nM DHT for 18 h. Cells were then assayed for luciferase activity using a know assay.^10
To determine if the compounds act as AR agonists or antagonists, androgen regulated transcriptional activation studies were performed in LNCaP cells transiently transfected with the probasin luciferase reported construct ARR2-Luc.
as §4

Compound | GI50 (LNCaP cells; Homo sapiens, LNCaP) [nM] | GI50 (LNCaP cells) [nM] | fold less potent than compound 8 (GI50) (LNCaP cells; LNCaP cells) [fold] | fold more potent than compound 6 (GI50) (LNCaP cells; LNCaP cells) [fold] | GI50 (PC-3 cells) [nM] | melting point [°C] | reduction of [3H]-R1881 binding (wild-type AR; 10 μM) [%] | reduction of [3H]-R1881 binding (wild-type AR; 20 μM) [%] | reduction of [3H]-R1881 binding (mutated AR; 10 μM) [%] | reduction of [3H]-R1881 binding (mutated AR; 20 μM) [%] | effect on luciferase activity, compound alone ([1]; 0.1 μM) | reduction of luciferase expression in the presence of DHT ([1]; 10 μM, with 5 nM DHT) [%] | effect on luciferase activity, compound alone ([1]; 10 μM)
O=[N+]([O-])c1ccccc1NS(=O)(=O)c1ccccc1 [Compound 7, (2-Nitrophenyl)(phenylsulfonyl)amine] | 14.8 | 14.1 | 5 | 5.6 | 22900 | 102 | – | – | – | – | – | – | –
Cc1ccc(NS(=O)(=O)c2ccc(F)cc2)c([N+](=O)[O-])c1 [Compound 9, [(4-Fluorophenyl)sulfonyl](4-methyl-2-nitrophenyl)amine] | 2.34 | – | – | – | 850 | – | 50 | 65 | 50 | 65 | slight increase | 50 | did not increase
